Data reported in PMC6278366, “Synthesis and Evaluation of Anticancer Activities of Novel C-28 Guanidine-Functionalized Triterpene Acid Derivatives” (Molecules, 2018).
Counter-ions that a name gives are not always drawn.

System: Jurkat cells
Assay: Cell cycle analysis (propidium iodide staining, flow cytometry)
Type: cell-based, human
Settings: 48 h, at IC50 concentration (59 μM Dihydro BA; 4 μM 15, 15c, 18c; 8 μM 20c); for cells in G2/M phase: control 14.5%
Protocol: Cell cycle was analyzed using the method of propidium iodide staining. Briefly, cells were plated in 24-well round bottom plates at density 10 × 10^5 cells per well, centrifuged at 450× g for 5 min, and fixed with ice-cold 70% ethanol for 24 h at 0 °C. Cells were then washed with PBS and incubated with 250 μL of Guava Cell Cycle Reagent (Millipore, Burlington, MA, USA) for 30 min at room temperature in the dark. Samples were analyzed on NovoCyte^TM 2000 FlowCytometry System (ACEA, San Diego, CA, USA).
Figure 3 Cell cycle analysis in Jurkat cells. […] The cells were trypsinized, harvested and washed three times with ice-PBS for PI-stained DNA content detected by flow cytometry. The experiments were performed three times, and the results of the representative experiments are shown. The first cytogram represents an untreated cell sample (A); after incubation with dihydrobetulinic acid for 48 h (B); after incubation with compound 15 for 24 h (C) and for 48 h (D); after incubation with compound 15c for 24 h (E) and for 48 h (F); after incubation with compound 18c for 24 h (G) and for 48 h (H); after incubation with compound 20c for 24 h (I) and for 48 h (J). […]

SMILES | cells in G2/M phase [%] | cells in S phase (control 38.3%) [%]
CC(=O)O[C@H]1CC[C@@]2(C)C(CC[C@]3(C)C2CCC2C4C(C(C)C)CC[C@]4(C(=O)OCC(N)(CO)CO)CC[C@]23C)C1(C)C (stereo partly drawn) [Compound 15, 3β-[2-Amino-3-hydroxy-2-(hydroxymethyl)propyl]-3-O-acetyl-lupane-28-oate] | 7.0 | 72.7
CC(=O)O[C@H]1CC[C@@]2(C)C(CC[C@]3(C)C2CCC2C4C(C(C)C)CC[C@]4(C(=O)OCC(CO)(CO)NC(=N)N)CC[C@]23C)C1(C)C (stereo partly drawn) [Compound 15c, 3β-[2-Guanidine-3-hydroxy-2-(hydroxymethyl)propyl]-3-O-acetyl-lupane-28-oate hydrochloride] | 1.5 | –
